System: hepatocytes
Assay: Seq-Well scRNA-Seq of hepatocytes after APAP overdose (signature scores, DEG vs untreated)
Type: in vivo, mouse
[1] = A48 (48 h post-APAP) vs other clusters, Wilcox
[2] = A48 (APAP 48 h) vs untreated (UT) hepatocytes

## CC(=O)Nc1ccc(O)cc1 [APAP, acetaminophen]
[1]
  avg_logFC Mlycd: 0.4378
  avg_logFC Ndrg2: 0.3482
  avg_logFC Nr1i3: 0.4759
  avg_logFC Oaf: 0.5021
  avg_logFC P4hb: 0.2981
  avg_logFC Pabpc1: 0.4782
  avg_logFC Plin5: 0.3985
  avg_logFC Pnpla2: 0.3465
  avg_logFC Prodh2: 0.5055
  avg_logFC Rbp4: 0.3942
  avg_logFC Rdh7: 0.4684
  avg_logFC Reep6: 0.6233
  avg_logFC Retsat: 0.7096
  avg_logFC Rgs16: 0.4545
  avg_logFC Rpl38: 0.3322
  avg_logFC Scand1: 0.2707
  avg_logFC Serpina3m: 0.4034
  avg_logFC Serpina1d: 0.3053
  avg_logFC Serping1: 0.5777
  avg_logFC Slc25a10: 0.4313
  avg_logFC Slc25a20: 0.3875
  avg_logFC Slc25a47: 0.6175
  avg_logFC Slc27a5: 0.4062
  avg_logFC Slc37a4: 0.4461
  avg_logFC Slco1a4: 0.5091
  avg_logFC Snord118: 0.4771
  avg_logFC St3gal5: 0.5549
  avg_logFC Sult1a1: 0.4827
  avg_logFC Syvn1: 0.3041
  avg_logFC Tcea3: 0.3938
  avg_logFC Tef: 0.3394
  avg_logFC Tmbim4: 0.3693
  avg_logFC Tmbim6: 0.3713
  avg_logFC Ttc36: 0.5638
  avg_logFC Ttpa: 0.4431
  avg_logFC Ttr: 0.4225
  avg_logFC Ugt2b5: 0.4388
  avg_logFC Vnn3: 0.3008
  avg_logFC Vtn: 0.5228
  avg_logFC Yipf3: 0.2785
A48 (APAP 48 h) hepatocytes
  Gstm3 pct.1: 0.279
  Pim3 pct.1: 0.845
[2]
  Gstm3 avg_logFC: −0.6277
  Pim3 avg_logFC: 0.2884
A48A96 vs untreated (UT)
  avg_logFC Acsl1: 0.2563
  avg_logFC Aldh3a2: 0.3079
  avg_logFC Atp1a1: 0.2628
  avg_logFC Atp5d: 0.2501
  avg_logFC C6: −0.267
  avg_logFC Ces1e: 0.2656
  avg_logFC Ctsd: 0.2579
  avg_logFC Cyp4a12a: −0.2771
  avg_logFC Ech1: 0.2505
  avg_logFC F5: 0.3006
  avg_logFC F9: 0.2568
  avg_logFC F12: 0.2567
  avg_logFC Fcgrt: 0.2585
  avg_logFC Fn1: 0.2925
  avg_logFC Ftl1: −0.2988
  avg_logFC Gabarapl1: 0.2607
  avg_logFC Gclm: 0.2588
  avg_logFC Glul: 0.3795
  avg_logFC Gm4076: −0.3083
  avg_logFC Gm20594: −0.3566
  avg_logFC Gsta2: 0.2522
  avg_logFC Hadha: 0.2509
  avg_logFC Hal: 0.2801
  avg_logFC Hgfac: 0.2522
  avg_logFC Hsd17b4: 0.2532
  avg_logFC Ifitm3: −0.2543
  avg_logFC Inmt: −0.2532
  avg_logFC Lpgat1: 0.2576
  avg_logFC Lpin1: 0.2775
  avg_logFC Ndufb2: 0.2516
  avg_logFC Park7: 0.2515
  avg_logFC Pck1: 0.2719
  avg_logFC Pipox: 0.2725
  avg_logFC Ppp2r5a: 0.2509
  avg_logFC Ptms: 0.2678
  avg_logFC Rarres1: −0.2919
  avg_logFC Rpl32: −0.2847
  avg_logFC Rpl41: −0.295
  avg_logFC Sardh: 0.2692
  avg_logFC Sdhd: 0.3208
  avg_logFC Sds: 0.2973
  avg_logFC Sec61a1: 0.2637
  avg_logFC Serpina12: −0.3247
  avg_logFC Sfxn1: 0.3049
  avg_logFC Slc2a2: 0.2723
  avg_logFC Slc37a4: 0.2683
  avg_logFC Tmem106b: 0.2704
  avg_logFC Ubb: −0.2644
  avg_logFC Ubxn4: 0.2503
  avg_logFC Upb1: 0.2504
  avg_logFC Usmg5: 0.2787
  avg_logFC mmu-mir-6236: −0.4297
  avg_logFC mt-Atp6: −0.3234
A48 vs UT
  C6 A48logFC: −0.267
  Glul A48logFC: 0.3795
  Gm20594 A48logFC: −0.3566
  Rps8 A48logFC: −0.2746

Source: patent publication US20230053540A1, “TREATMENT OF LIVER INJURY” (Massachusetts Institute of Technology, priority 2019, published 2023)
